Source: US20080312211A1, “Antibacterial Pyrrolopyridines, Pyrrolopyrimidines and Pyrroloazepines-154” (ASTRAZENECA AB, priority 2005, published 2008)

Legend:
Streptococcus pneumoniae = assay: Bacterial susceptibility testing in liquid media (MIC); format: cell-based; set-up: unit not given here; settings: lowest concentration reducing growth by 80% or more; 37 degrees C., 24 hrs
Procedure: Compounds were tested for antimicrobial activity by susceptibility testing in liquid media. Compounds were dissolved in dimethylsulfoxide and tested in 10 doubling dilutions in the susceptibility assays. The organisms used in the assay were grown overnight on suitable agar media and then suspended in a liquid medium appropriate for the growth of the organism. The suspension was a 0.5 McFarland and a further 1 in 10 dilution was made into the same liquid medium to prepare the final organism suspension in 100 μL. Plates were incubated under appropriate conditions at 37 degrees C. for 24 hrs prior to reading. The Minimum Inhibitory Concentration was determined as the lowest drug concentration able to reduce growth by 80% or more.

Compound	melting point	MIC (Streptococcus pneumoniae)
COC(=O)c1cnc(N2CCC(n3c(=O)[nH]c4c(C#N)c(C)[nH]c4c3=O)CC2)s1 [Example 1, Methyl 2-[4-(7-cyano-6-methyl-2,4-dioxo-1,2,4,5-tetrahydro-3H-pyrrolo[3,2-d]pyrimidin-3-yl)piperidin-1-yl]-1,3-thiazole-5-carboxylate]	> 345 °C (dec.)	–
COC1CN(c2ncc(C(=O)O)s2)CCC1n1ccc2c(Cl)c(C)[nH]c2c1=O (stereo not drawn) [Example 22, 2-[3,4-cis-4-(3-Chloro-2-methyl-7-oxo-1,7-dihydro-6H-pyrrolo[2,3-c]pyridin-6-yl)-3-methoxypiperidin-1-yl]-1,3-thiazole-5-carboxylic acid]	–	50
